Laboratory results from patent publication US20250345350A1, “TREATING PAIN ASSOCIATED WITH CENTRAL SENSITIZATION” (Medicon Pharmaceuticals, Inc., priority 2022, published 2025).
“And” between values parts separate entries of the source, which are not always exact repeats. Equal entries are not always repeated.

Assays:
[1] = system: STZ-induced central sensitization in Sprague-Dawley rats; assay: PWT (von Frey), streptozotocin rat model of central sensitization (Example 4); type: in vivo
Protocol: Sprague-Dawley rats were fasted for 4-6 hours before being injected intraperitoneally with 45 mg/kg STZ. This was performed for all experimental groups, except the naive group. In order to prevent hypoglycaemic death, rats received 10% sucrose water as the sole water source for the first 48 hours after injection. In order to ensure only those rats considered diabetic (i.e., having non-fasting plasma glucose levels of >250 mg/dL) were included in the study, blood glucose was measured at 72 hours after the STZ injection.
Four weeks after STZ injection, the rats were randomised into treatment groups. This delay between STZ injection and treatment allows the establishment of chronic pain (allodynia) associated with central sensitization. […] 5% lidocaine cream (positive control) was applied only once to both hind paws of the rats 30 minutes before measurement of PWT.
The rats were split into 8 study groups, with those in the experimental groups (1-4) having an average body weight of about 225 g, and those in the control groups (5-8) having an average body weight of about 335 g, as follows: • 1. Group 1: naive rats (n=5) • 2. Group 2: STZ only (n=6) • 3. Group 3: STZ plus vehicle (n=6) • 4. […] Group 5: STZ plus oral vehicle (n=8) • 6. Group 6: STZ plus 0.7% sulindac hydrogel (n=7) • 7. Group 7: STZ plus 5% lidocaine cream (n=8) • 8.

[2] = system: NTG-induced migraine in mice; assay: PWT (von Frey), NTG-induced migraine mouse model, intraperitoneal clinical compounds (Example 15); conditions: 30 min after single i.p. dose given 30 min after NTG; topiramate 30 mg/kg, sumatriptan 600 μg/kg, propranolol 10 mg/kg, gabapentin 30 mg/kg
Protocol: In line with the earlier Examples, migraine was induced using 0.4 mg of NTG administered sublingually in the form of a finely crushed 0.4 mg NTG tablet (Greenstone Brand).
A single intraperitoneal dose of topiramate (30 mg/kg), sumatriptan (600 μg/kg), propranolol (10 mg/kg), gabapentin (30 mg/kg) or vehicle was administered 30 min after the induction of migraine, at the indicated doses.
Group 1: baseline (i.e, no NTG treatment) • 2. Group 2: vehicle • 3. Group 3: topimarate • 4. Group 4: sumatriptan • 5. Group 5: propanolol • 6. Group 6: gabapentin
Mechanical allodynia was determined using the method of von Frey filaments in line with that performed in the earlier Examples. The PWT test was performed 30 minutes after compound or vehicle control administration. The mechanical threshold, expressed as g, indicates the force of the von Frey filament to which the animal reacted.

[3] = system: NTG-induced chronic migraine in mice; assay: PWT (von Frey), NTG-induced chronic migraine model, oral (Example 16)
Protocol: In particular, mice receive sublingual NTG 0.4 mg in the form of a finely crushed 0.4 mg NTG tablet (Greenstone Brand) every two days, receiving a total of five doses. For control mice, an NTG placebo (Practi-Nitroglycerin Sublingual 0.4 mg Simulated Medication tablet) was administered in the same way.
Group 1: placebo NTG (i.e, no NTG treatment, n=8) • 2. Group 2: NTG (n=8) • 3. Group 3: NTG+vehicle (n=8) • 4. […] Group 5: NTG+sulindac (n=8)
Mechanical allodynia was determined using von Frey filaments in line with that performed in the earlier Examples. The PWT test was performed prior to NTG (or placebo NTG) administration to determine baseline values, as indicated. […] The mechanical threshold, expressed as g, indicates the force of the von Frey filament to which the animal reacted.

[4] = system: NTG-induced migraine in C57BL/6J mice; assay: PWT (von Frey), NTG-induced migraine mouse model, topical (Example 13); conditions: confirmation of NTG model
Protocol: Specifically, instead of the intraperitoneal injection of NTG, a finely crushed 0.4 mg NTG tablet (Greenstone Brand) was administered sublingually. As a control, a Practi-Nitroglycerin Sublingual 0.4 mg Simulated Medication tablet was used.
For determining mechanical allodynia, pain threshold responses were measured using the well-established method of von Frey filaments in line with that performed in the earlier Examples.
The PWT test, assessing mechanical allodynia, was performed 30 minutes after treatment. The mechanical threshold, expressed as g, indicates the force of the von Frey filament to which the animal reacted.

[5] = system: paclitaxel-induced pain associated with central sensitization in C57BL/6J mice; assay: Mechanical allodynia (von Frey), paclitaxel-induced pain, topical PS 8% (Example 2); type: in vivo, mouse
Excerpt: (§1) Food and water were available ad libitum.
(§2) Paw withdrawn, licking or shaking were considered positive responses.

[6] = system: paclitaxel-induced central sensitization in C57/BL/6J mice; assay: Cold allodynia (acetone test), paclitaxel model (Example 3); type: in vivo, mouse; conditions: after paclitaxel treatment
Protocol: To determine the outcome of treatment, assessment of mechanical allodynia was performed. […] Both methods of assessing allodynia are described in Toma W, et al. Neuropharmacology 2017; 117:305-15. Mechanical and cold allodynia are determined at least one day apart in the same animal.
The acetone test was used. Briefly, acetone was applied onto the plantar surface of each hind paw. The time each mouse spent licking, lifting, and/or shaking the hind paw recorded over 60 seconds was the score for cold allodynia. Measurements were performed on day-8 (before the first paclitaxel injection), the day of starting treatment (day 0) and then on day 15.

[7] = system: paclitaxel-induced CIPN in C57BL/6J mice; assay: PWT (von Frey), mouse model of CIPN, oral administration (Example 5); type: in vivo; conditions: day 7; oral gavage three times a day for 7 days, PS 50 mg/kg, sulindac 33 mg/kg
Excerpt: CIPN was induced in mice with chemotherapeutic agents using established protocols (Carozzi et al, 2010; Currie et al, 2019; Eldridge et al, 2020). […] This dosing regimen of paclitaxel produces pain associated with CIPN with time courses that are similar to those of pain after paclitaxel administration in cancer patients.
Group 1: naive mice (i.e. no paclitaxel, n=8) • 2. Group 2: paclitaxel only (n=8) • 3. Group 3: paclitaxel plus vehicle (n=8) • 4. […] Group 5: paclitaxel plus sulindac (n=8)
The PWT test was performed on day 7.

[8] = system: paclitaxel-induced central sensitization in C57/BL/6J mice
Protocol: Regarding the treatment with lidocaine: 5% lidocaine cream (a positive control) was applied once to both hind paws of the mice 30 minutes before measurement of PWT.
Briefly, for mechanical allodynia, pain threshold responses were measured using the well-established method of von Frey filaments in line with that performed in the earlier Examples. The PWT test was performed on day-8 (before the first dose of paclitaxel), the day of starting treatment (day 0, at which central sensitization was fully established) and day 14 (treatment continued until day 15). The mechanical threshold, expressed as g, indicates the force of the von Frey filament to which the animal reacted.

[9] = system: paclitaxel-induced central sensitization in C57/BL mice; assay: Paw withdrawal threshold (von Frey), paclitaxel model, topical PS (Example 1); conditions: day 10, about 30 min after last application; PS 8% hydrogel topically to both hind paws 3 times a day for 10 days
[10] = PS and metabolites in proximal and distal half of the sciatic nerve (Example 25); type: in vivo, mouse; conditions: mouse, in vivo
Protocol: In a separate experiment we studied 8 mice with paclitaxel-induced PN treated with PS 8% ointment 3×/d for 2 wks. Mice were euthanized as above 30 minutes after the last dose of PS. From these mice we harvested both sciatic nerves dividing each into proximal and distal halves, and combined the corresponding halves of every two animals for assay of drug levels.

[11] = system: NTG-induced chronic migraine in mice; assay: PWT (von Frey), NTG-induced chronic migraine model, intraperitoneal topiramate and sumatriptan (Example 17); type: in vivo, mouse
Protocol: The NTG-induced chronic migraine model was used as described previously.
sumatriptan (600 μg/kg), or vehicle was administered.
. Group 1: NTG+vehicle (n=8) • 2. Group 2: NTG+topiramate (n=8) • 3. Group 3: NTG+sumatriptan (n=8)

[12] = system: oxaliplatin-induced pain associated with central sensitization in C57BL/6J mice; assay: Mechanical allodynia (von Frey), oxaliplatin-induced pain, topical PS 8% (Example 2); type: in vivo, mouse; conditions: day 0, in the two study groups respectively; cumulative 30 mg/kg i.p.
Excerpt: as §1
(§3) Protocol for the Treatment of Established Pain Associated with Central Sensitization with PS
as §2

[13] = system: chronic constriction injury-induced peripheral neuropathy in C57BL/6J mice; assay: PWT (von Frey), chronic constriction injury model of PTPN, topical (Example 7); conditions: day 14, PS 5% gel or sulindac 0.7% gel on left paw three times a day for 14 days, pregabalin once by oral gavage 1 h before
Protocol: Group 1: ligation only (i.e, surgical control with no treatment, n=5-7) • 2. Group 2: vehicle control (n=5-7) • 3. […] Group 4: 0.7% sulindac (n=5-7) • 5.
Briefly, for determining mechanical allodynia, pain threshold responses were measured using the well-established method of von Frey filaments in line with that performed in the earlier Examples. The PWT test was performed on day 14. The mechanical threshold, expressed as g, indicates the force of the von Frey filament to which the animal reacted.

[14] = system: vincristine-induced pain associated with central sensitization in C57BL/6J mice; assay: Mechanical allodynia (von Frey), vincristine-induced pain, topical PS 8% (Example 2); type: in vivo, mouse
Excerpt: as §1, §3, §2

[15] = Baseline, prior to NTG administration
[16] = Post-compound administration, 30 min after single i.p. dose, topiramate 30 mg/kg, sumatriptan 600 μg/kg

For `CN(N=O)C(=O)N[C@H]1C(O)O[C@H](CO)[C@@H](O)[C@@H]1O` (mixture of isomers) [STZ, streptozotocin], the “PWT, gm Mean ± SEM” value ([1]; week 7, PS 8% hydrogel to both hind paws 3 times a day for 3 weeks from week 4 after STZ) was 15.7 ± 0.84 gm.

In the case of `NCC1(CC(=O)O)CCCCC1` [Gabapentin, gabapentin], the “PWT, g Mean ± SEM” value [2] is reported as 1.44 ± 0.25 g.

For `O=[N+]([O-])OCC(CO[N+](=O)[O-])O[N+](=O)[O-]` [NTG, nitroglycerin], the “PWT, g Mean ± SEM” value [3, 15] was 1.95 ± 0.18 g, the “PWT, g Mean ± SEM” value ([3]; Day 11, orally once a day for 11 days concurrent with NTG, PS 50 mg/kg, sulindac 33 mg/kg) was 0.66 ± 0.11 g and the “PWT, g 30 min Mean ± SEM” value ([4]; 30 min after sublingual NTG 0.4 mg) was 0.70 ± 0.12 g. The “PWT, g 60 min Mean ± SEM” value ([4]; 60 min after sublingual NTG 0.4 mg) was 0.51 ± 0.05 g.

For `CC(=O)O[C@H]1C(=O)[C@@]2(C)[C@H]([C@H](OC(=O)c3ccccc3)[C@]3(O)C[C@H](OC(=O)[C@H](O)[C@@H](NC(=O)c4ccccc4)c4ccccc4)C(C)=C1C3(C)C)[C@]1(OC(C)=O)CO[C@@H]1C[C@@H]2O` [Paclitaxel, paclitaxel, reference compound], the “mechanical allodynia score, mean±SEM” value ([5]; day 0 (initiation of treatment), paclitaxel-induced pain) was 0.78 ± 0.08 g, the “mechanical allodynia score, mean±SEM” value ([5]; day 16, PS 8% ointment 3x/day to hind paws) was 0.57 ± 0.05 g and the “reduction of mechanical allodynia scores by paclitaxel” value ([5]; paclitaxel administered over 12 days, cumulative 32 mg/kg i.p.) was ~85%. For the same compound, the “cold allodynia score (acetone test)” value [6] was 7.1 ± 0.4 s, the “PWT, g Mean ± SEM” value [7] was 0.53 ± 0.03 g and the “mechanical allodynia score, mean±SEM” value ([8]; day 0, after paclitaxel, central sensitization fully established) was 0.55 ± 0.05 g. For the same compound, the “PWT, % baseline Mean ± SEM” value [9] was 86.75 ± 5.42 % baseline.

With `CC(C)NCC(O)COc1cccc2ccccc12` (stereo not drawn) [Propanolol, propranolol] the “PWT, g Mean ± SEM” value [2] was 1.37 ± 0.14 g.

In the case of `CC1=C(CC(=O)O)c2cc(F)ccc2/C1=C\c1ccc(S(C)(=O)=O)cc1` [Sulindac sulfone, sulindac sulfone], the “Distal half of sciatic nerve, mean ± SEM” value [10] is reported as 0.9 ± 0.2 µM, the “Fold difference (distal vs proximal)” value [10] is reported as 4.5 fold and the “Proximal half of sciatic nerve, μM, mean ± SEM” value [10] is reported as 0.2 ± 0.08 µM.

With `CNS(=O)(=O)Cc1ccc2[nH]cc(CCN(C)C)c2c1` [Sumatriptan, sumatriptan] the “PWT, g Mean ± SEM” value [11, 15] was 1.90 ± 0.06 g, the “PWT, g Mean ± SEM” value ([11]; Day 12 (pre-treatment)) was 0.57 ± 0.02 g and the “PWT, g Mean ± SEM” value [11, 16] was 1.33 ± 0.17 g. For the same compound, the “PWT, g Mean ± SEM” value [2] was 1.34 ± 0.12 g.

For `CC1(C)O[C@@H]2[C@@H](CO[C@@]3(COS(N)(=O)=O)OC(C)(C)O[C@@H]23)O1` [Topiramate, topiramate], the “PWT, g Mean ± SEM” value [11, 15] was 2.40 ± 0.24 g, the “PWT, g Mean ± SEM” value ([11]; Day 12 (pre-treatment)) was 0.60 ± 0.00 g and the “PWT, g Mean ± SEM” value [11, 16] was 1.76 ± 0.11 g. The “PWT, g Mean ± SEM” value [2] was 1.40 ± 0.14 g.

In the case of `CCN(CC)CC(=O)Nc1c(C)cccc1C` [lidocaine], the “PWT, gm Mean ± SEM” value ([1]; 0.7% sulindac hydrogel 3 times a day for 1 week, 5% lidocaine cream once 30 min before, pregabalin 10 mg/kg orally once 1 h before) is reported as 26.0 ± 1.8 gm and the “PWT, g Mean ± SEM” value ([8]; day 14, PS hydrogel 5% or 0.7% sulindac 3 times a day, 5% lidocaine cream once 30 min before, pregabalin 10 mg/kg orally once 1 h before) is reported as 1.48 ± 0.12 g.

In the case of `O=C1[O][Pt]2([NH][C@@H]3CCCC[C@H]3[NH]2)[O]C1=O` [oxaliplatin, reference compound], the “reduction of allodynia score during oxaliplatin administration” value [12] is reported as 65% and 56%.

For `CC(C)C[C@H](CN)CC(=O)O` [pregabalin, reference compound], the “PWT, g Mean ± SEM” value [13] was 1.1 ± 0.10 g and the “PWT, g Mean ± SEM” value ([13]; listed as Pregabalin) was 1.1 ± 0.10 g.

In the case of `CC[C@]1(O)C[C@H]2CN(CCc3c([nH]c4ccccc34)[C@@](C(=O)OC)(c3cc4c(cc3OC)N(C=O)[C@H]3[C@@](O)(C(=O)OC)[C@H](OC(C)=O)[C@]5(CC)C=CCN6CC[C@]43[C@@H]65)C2)C1` [vincristine], the “mechanical allodynia score, mean±SEM” value ([14]; day 0) is reported as 0.7 ± 0.07 g, the “reduction of mechanical allodynia score by vincristine” value ([14]; day 0 vs day -7, three groups, cumulative 3 mg/kg i.p.) is reported as 61%-65% and the “mechanical allodynia score, mean±SEM” value ([14]; day 16) is reported as 0.8 ± 0.09 g.
